Experimental data: ChEMBL document CHEMBL1146465, “Three new oleanane-type triterpenes from Ludwigia octovalvis with cytotoxic activity against two human cancer cell lines” (J Nat Prod, 2004)

Key:
KB = assay: Cytotoxicity against human KB cells after 72 hrs by methylene blue assay; type: functional, cell-based
HT-29 = assay: Cytotoxicity against human HT-29 cells after 72 hrs by methylene blue assay; type: functional, cell-based; details: HT-29, 72 h

## COc1cc([C@@H]2c3cc4c(cc3[C@@H](O[C@@H]3O[C@@H]5CO[C@@H](C)O[C@H]5[C@H](O)[C@H]3O)[C@H]3COC(=O)[C@H]23)OCO4)cc(OC)c1O [ETOPOSIDE]
KB
  IC50: 1100 nM
HT-29
  IC50: 2300 nM

## CC1(C)CC[C@]2(C(=O)O)CC[C@]3(C)C(=CC[C@@H]4[C@@]5(C)CC[C@H](OC(=O)/C=C\c6ccc(O)cc6)[C@@](C)(CO)[C@@H]5CC[C@]43C)[C@@H]2C1
KB
  IC50: 1200 nM
HT-29
  IC50: 2100 nM

## CC1(C)CC[C@]2(C(=O)O)CC[C@]3(C)C(=CC[C@@H]4[C@@]5(C)CC[C@H](O)[C@@](C)(COC(=O)/C=C/c6ccc(O)cc6)[C@@H]5CC[C@]43C)[C@@H]2C1
KB
  IC50: 1300 nM
HT-29
  IC50: 2400 nM

## CC1(C)CC[C@]2(C(=O)O)CC[C@]3(C)C(=CC[C@@H]4[C@@]5(C)CC[C@H](O)[C@@](C)(COC(=O)/C=C\c6ccc(O)cc6)[C@@H]5CC[C@]43C)[C@@H]2C1
KB
  IC50: 1600 nM
HT-29
  IC50: 3600 nM
